Results on 3 molecules are retold here after patent US9126959B2, “PPAR-sparing thiazolidinedione salts for the treatment of metabolic diseases” (Metabolic Solutions Development Company, LLC, priority 2009, dated 2015).

A short description of data set [1]: AUC of compound related materials after oral dosing of Compound B free acid or its Na or K salt. Conditions: cynomolgus monkeys, 250 mg free acid equivalents, formulated tablets; compared with free acid. It counts as in vivo. The protocol:
Referring to FIG. 10, the area under the curve (AUC) of compound related materials was compared following dosing of 250 mg of Compound B as powder in capsules of free acid (PIC), formulated tablets of micronized free acid, or formulated tablets of the Na or K salt of Compound B given at the same free acid equivalents. (N=4 cynomolgus monkeys). The formulated, compressed tablet also contained in each case approximately 40.5% lactose, 16.8% microcrystalline cellulose, 1.9% Croscarmellose sodium, 0.5% colloidal silicon dioxide, and 0.9% magnesium stearate.

A short description of data set [2]: Moisture sorption analysis of metal salts of Compound B. In kind it is physicochemical. Conditions: 25° C. The protocol: Metal salts of compounds of Formula I were characterized using XRPD, DSC, thermogravimetry, and moisture sorption analyses. Note that XRPD patterns described below, and provided in FIGS. 1 and 5 were obtained using a Bruker Model D8 X-Ray Diffractometer. Thermogravimetric analyses, DSC analyses, and moisture sorption analyses were performed using a TA Instruments Universal V4.4A instrument.
FIG. 1 provides the XRPD pattern of a sample of a sodium salt of Compound B Referring to FIGS. 2-4, thermogravimetric, DSC, and moisture sorption analyses were performed on a sodium salt of Compound B. Thermogravimetric analysis was conducted using 7.5450 mg of the sodium salt and an instrument setting of 10° C./min. The DSC analysis was performed using a 2.00 mg sample of the sodium salt and an instrument setting of 10° C./min. The moisture sorption analysis was performed on 14.07 mg of sodium salt over a relative humidity range of 5% to 95% at 25° C. with 180 minute max. equilibration time and data sampling every 2 minutes.
FIG. 5 provides the XRPD pattern of a sample of a potassium salt of Compound B Referring to FIGS. 6-8, thermogravimetric, DSC, and moisture sorption analyses were performed on a potassium salt of Compound B. Thermogravimetric analysis was conducted using 15.9290 mg of the potassium salt and an instrument setting of 10° C./min. […]

A further data set concerns diabetic KKAy mouse. Nature of the data set: Blood glucose lowering in the diabetic KKAy mouse. In kind it is in vivo. Conditions: diabetic KKAy mice, gavage once daily, measured after 4 daily doses. The method, then: In these experiments, free base or sodium salt was given to diabetic KKAy mice (N=6) and blood glucose was measured after 4 days of daily treatment at the doses indicated. KKAy mice, 8-12 weeks of age, were given the doses of the compounds according to the dosages on the X axis of FIG. 11. The compounds were given by gavage once daily at 10 mg/kg. On the fifth day (after 4 daily doses at the levels show) a blood sample was taken to measure plasma glucose.

A short description of data set [3]: Bioavailability of sodium salt of Compound A, oral capsule versus iv injection, crossover design. In kind it is in vivo. Conditions: male cynomolgus monkeys, oral gavage, 90 mg free base equivalents in gelatin capsules; compared with free base. The protocol: The monkeys fasted overnight and were dosed by oral gavage washed down with 10 ml tap water. Blood samples were taken at 0.25, 0.5, 1, 2, 3, 4, 6, 9, 12, 24, and 48 hours after a single dosage was administered and assayed for drug related materials with a LCMS assay using an internal standard. 90 mg of drug was put in 00 gelatin capsules containing 90 mg of free base equivalents. This was compared to an iv injection of 2 ml/kg and 45 mg of free base solution in 50% hydroxypropyl b-cyclodextran. The absolute availability versus an iv injection was determined for both parent compound and major metabolite.

SMILES strings stand for the structures. Structures can show the parent of a compound that is named as a salt.

Regarding `COc1cccc(C(=O)COc2ccc(CC3SC(=O)[N-]C3=O)cc2)c1.[K+]` (stereo not shown) [potassium salt of Compound B, Potassium 5-{4-[2-(3-methoxyphenyl)-2-oxoethoxy]benzyl}-2,4-dioxo-1,3-thiazolidin-3-ide], the “bioavailability (AUC of compound related materials)” value in data set [1] is “significantly higher bioavailability”. For the same molecule, the water uptake in data set [2] (relative humidity increased from ~5% to ~95% RH) was around 21.1 wt %.

For the molecule `CCc1ccc(C(=O)COc2ccc(CC3SC(=O)NC3=O)cc2)nc1` (stereo not shown) [sodium salt of Compound A, 5-(4-(2-(5-ethylpyridin-2-yl)-2-oxoethoxy)benzyl)-1,3-thiazolidine-2,4-dione], in the data set with diabetic KKAy mouse, the “lowering blood glucose (plasma glucose)” value was “excellent dose response for lowering blood glucose”. In data set [3], the “absolute availability versus an iv injection, major metabolite” value is “significantly higher bioavailability” and the “absolute availability versus an iv injection, parent compound” value was “significantly higher bioavailability”.

For the molecule `COc1cccc(C(=O)COc2ccc(CC3SC(=O)[N-]C3=O)cc2)c1.[Na+]` (stereo not shown) [sodium salt of Compound B, Sodium 5-{4-[2-(3-methoxyphenyl)-2-oxoethoxy]benzyl}-2,4-dioxo-1,3-thiazolidin-3-ide], the “bioavailability (AUC of compound related materials)” value in data set [1] is listed as “significantly higher bioavailability”. Moreover, the moisture uptake in data set [2] (between ~6% and ~95% RH) is on record as around 10.0 wt %.
